Where a SMILES comes first, the peptide text is derived from it. Bridges are numbered along the chain shown (N, C = ends). Roman numbers before positions name the chains, in order. Triazole bridges read from a SMILES are 1,4-linked. Where no end group is shown, it is not given here. Side-chain parts run from the residue outwards. [ ]: non-standard residue; d: D form. The star is where a group is joined. X2 = CN1C(=C/C=C/C=C/C2=[N+](CCCCCC(=O)*)c3ccc(S(=O)(=O)[O-])cc3C2(C)C)C(C)(C)c2cc(S(=O)(=O)O)ccc21; X1 = CN1C(=CC=CC=CC2=[N+](CCCCCC(=O)*)c3ccc(S(=O)(=O)[O-])cc3C2(C)C)C(C)(C)c2cc(S(=O)(=O)O)ccc21; Lys(N3) = [N-]=[N+]=NCCCC[C@H](N)C(=O)O; Cit = NC(=O)NCCC[C@H](N)C(=O)O; d(hCys) = N[C@H](CCS)C(=O)O; PEG3 = NCCOCCOCCOCCC(=O)O; Pra = C#CC[C@H](N)C(=O)O
Tests used:
[1] = target: T1, NanoLuc-MDM2 in HEK293_CMKLR1-eYFP cells (Homo sapiens, UniProt Q00987); assay: Intracellular Cy5-PMIγ/NanoLuc-MDM2 BRET, cells with CMKLR1; type: cell-based; conditions: for displacement from MDM2 by 10 μM nutlin-3a (kinetic BRET): 72 h internalization; for BRET between NanoLuc-MDM2 and Cy5-labeled peptide: CMKLR1-expressing cells, 1 or 10 μM; for receptor-specific BRET under uptake competition: coincubation with 30 μM unlabeled peptide 1
T1 construct: host or cells: HEK293 and HEK293_CMKLR1-eYFP
Procedure: 4 Intracellular bioluminescence resonance energy transfer (BRET) between NanoLuc-MDM2 and Cy5-labeled PMIγ in living cells. (A) Peptides were incubated on HEK293 and HEK293_CMKLR1-eYFP cells for 72 h before BRET was measured. To evaluate the receptor-specific effect, ΔBRET was calculated by subtracting netBRET of cells without CMKLR from netBRET from cells with CMKLR1. Mean ± SEM from three independent experiments performed in duplicate. […] (B) Calculated ΔBRET values after different incubation times of peptides on the cells. (C, D) Same as panels (A) and (B), but peptide uptake was competed by coincubation with 30 μM peptide 1 (N3-cC9). (E, F) Displacement of PMIγ peptides from MDM2 after 72 h internalization in a kinetic BRET measurement. After 3 min, 10 μM of the small molecule MDM2 antagonist Nutlin-3a was added and the loss of NanoLuc-MDM2/Cy5-PMIγ BRET was observed. Mean (bold line) ± SEM (dotted lines) from three independent experiments is shown. […]
Intracellular Cy5-PMIγ/NanoLuc-MDM2 bioluminescence resonance energy transfer […]
HEK293 and stably transfected HEK293_CMKLR1-eYFP cells were seeded at 15,000 cells per well into poly-ᴅ-lysine coated 96-well plates (white Nunc MicroWell, Thermo). The next day, cells in each well were transfected with 0.1 µg Transfection Carrier DNA (Promega) and 0.001 µg NanoLuc-MDM2 fusion vector (Promega) using Lipofectamine 3000 (Invitrogen) according to manufactures instructions. Cells were incubated overnight, washed, allowed to recover for 4 h, washed again and dilutions of the Cy5-labeled peptides were added to the cells and incubated for 24,48 or 72 h. For uptake competition experiments, 30 µM of the unlabeled peptide 1 (N3-cC9) were additionally added to each well. After the incubation, excess peptide was washed away thoroughly, and cells were incubated for 4 h before the cell culture medium was replaced by 50 µl Fluorobrite DMEM with Nano-Glo Live Cell Reagent (Promega). After 10 min incubation, luminescence was measured in a Spark multimode plate reader (Tecan), and BRET ratio was calculated by […]
dividing the Cy5-signal (670±30 nm) by the NanoLuc signal (450±20 nm). netBRET was calculated by subtracting the BRET ratio from cells which were incubated without peptide. To calculate the CMKLR1-specific effect, ΔBRET was calculated by subtracting the netBRET value obtained in cells without CMKLR1 from netBRET obtained in cells with CMKLR1. After the initial readout, a kinetic BRET displacement was performed with the same cells. For this, luminescence was measured every 22 s. After 3 min, 10 µM of the small molecule MDM2 antagonist Nutlin-3a (Sigma) was added to the cells and BRET was measured for another 7 min. Experiments were performed in technical duplicates and three independent times. Non-linear regression and statistical analysis were performed using Prism 10 (GraphPad).
Analogous to the intracellular Cy5-PMIγ/NanoLuc-MDM2 BRET experiment, HEK293 and HEK293_CMKLR1-eYFP cells were seeded and transfected with 0.09 µg Transfection Carrier DNA, 0.01 µg […]
were then incubated with dilutions of unlabeled PMIγ -peptides for 72 h or with Nutlin-3a for 24 h. During the last 30 min of the incubation, HaloTag TMR Ligand (Promega) was added to the cells to fluorescently label the p53-HaloTag fusion proteins in the cells. Cells were then washed thoroughly, incubated for 4 h in full cell culture medium without peptides, and the cell culture medium was then replaced by 50 µl Fluorobrite DMEM with Nano-Glo Live Cell Reagent. After 10 min incubation, luminescence was measured, and BRET ratio was calculated by dividing the TMR-signal (600±50 nm) by the NanoLuc signal (450±20 nm). netBRET was calculated and normalized to cells without peptide (100%) and cells which were not label ed with HaloTag TMR Ligand (0%). Experiments were performed in technical duplicates and at least twice. Non-linear regression and statistical analysis were performed using Prism 10 (GraphPad).

HMEC-1 cells = assay: Fluorescence correlation spectroscopy (FCS) in the cytosol; conditions: HMEC-1, applied concentration 1000 nM, 72 h; for cytosolic concentration, mean ± SD: FCS at 22 °C
Procedure: 3 Quantification of Cy5-labeled peptides in the cytosol. (A) RP-HPLC (λex = 640 nm, λem = 670 nm) of cleavage products of Cy5-labeled peptides in the lysate of HEK293_CMKLR1-eYFP cells after incubation with 1 μM peptide for different durations. […] (B) Representative fluorescence correlation spectroscopy (FCS) autocorrelation curves of Cy5-labeled peptides measured in the cytosol of HEK293_CMKLR1-eYFP cells after 72 h of incubation. Measured curves were fitted with a model for hindered 3D diffusion and diffusion time t D and anomalous coefficient α were calculated from the fit. Autocorrelation data represent mean ± SD of up to 10 consecutive 5 s measurements in a single cell. (C) Intracellular concentrations of Cy5-labeled peptides after 72 h incubation calculated from the fitted autocorrelation curves obtained in HEK293_CMKLR1-eYFP, HMEC-1, and THP-1 cells. Each data point corresponds to FCS measurements from the cytosol of a single cell. Median with the interquartile range is shown. Data from three independent experiments. Statistical comparison by log-normal unpaired t test. ***p ≤ 0.001, **p ≤ 0.01, *p ≤ 0.05, ns – not significant. […] (D) Calculated diffusion coefficients from the fitted autocorrelation curves. Median with the interquartile range is shown. […]
Fluorescence correlation spectroscopy (FCS)
Cytosolic delivery was quantified by FCS as has been described previously.3–5 Stably transfected HEK293_CMKLR1-eYFP cells were seeded at 30,000 cells per well and HMEC-1 cells at 10,000 cells per well into poly-ᴅ-lysine-coated 8-well microscopy slides (ibidi) in their respective cell culture medium. THP-1 cells were resuspended in fresh cell culture medium at 100,000 cells/mL in 500 µL cell culture medium in uncoated 12-well plates. The next day, dilutions of Cy5-labeled peptides were added to the cells and incubated for 72 h. Cell membranes of HMEC-1 and THP-1 cells were stained with 20 µg/mL Alexa Fluor 488-labeled concanavalin A (Invitrogen) for 20 min to enable identification of the cytosol. Nuclei were counterstained with Hoechst33342, and cells were washed with FluoroBriteTM DMEM (Gibco) + 25 mM HEPES (pH 7.4). After washing, THP-1 cells were transferred to poly-ᴅ-lysine-coated 8-well microscopy slides and allowed to sediment and adhere for 1 h. Confocal imaging and FCS were performed at 22 °C on a TCS SP8 FALCON microscope (Leica) with a Plan-Apochromat 40x/1,10 water immersion objective and HyD single molecule detector (Leica). The 638 nm laser line was used for excitation at 0.5% power and […]

T1 sequence (Q00987 whole entry): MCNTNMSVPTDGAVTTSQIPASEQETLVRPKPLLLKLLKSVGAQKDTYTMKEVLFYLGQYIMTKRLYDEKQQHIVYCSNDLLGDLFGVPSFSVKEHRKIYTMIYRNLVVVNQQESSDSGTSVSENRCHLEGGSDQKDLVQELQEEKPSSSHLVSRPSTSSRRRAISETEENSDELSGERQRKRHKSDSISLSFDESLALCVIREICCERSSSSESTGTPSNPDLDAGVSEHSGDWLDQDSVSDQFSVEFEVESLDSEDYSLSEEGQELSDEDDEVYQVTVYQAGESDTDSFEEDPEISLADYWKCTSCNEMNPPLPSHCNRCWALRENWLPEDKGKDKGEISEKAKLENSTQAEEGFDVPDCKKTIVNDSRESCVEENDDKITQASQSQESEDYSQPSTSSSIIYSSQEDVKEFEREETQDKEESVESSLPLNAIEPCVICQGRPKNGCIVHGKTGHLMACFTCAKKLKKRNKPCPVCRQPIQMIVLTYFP

Compound	displacement from MDM2 by 10 μM nutlin-3a (kinetic BRET) ([1]; 1 μM extracellular peptide)	BRET between NanoLuc-MDM2 and Cy5-labeled peptide ([1]; 72 h)	receptor-specific BRET under uptake competition [1]	cytosolic concentration, median (IQR) (HMEC-1 cells)	cytosolic concentration, mean ± SD (HMEC-1 cells) [nM]	loss of BRET after 10 μM nutlin-3a, compared with 2Cy ([1]; 1 μM extracellular peptide, 72 h)	ΔBRET (netBRET with CMKLR1 minus without) ([1]; 24, 48 and 72 h)
CC(=O)N[C@@H](CCCCn1cc(C[C@H](NC(=O)CCOCCOCCOCCNC(=O)[C@H](CCCNC(N)=O)NC(=O)[C@@H](NC(=O)[C@H](CCC(=O)O)NC(=O)CNC(=O)CNC(=O)[C@@H](CCCNC(=N)N)NC(=O)[C@@H](CC(C)C)NC(=O)[C@@H](CC(C)C)NC(=O)[C@@H](C)NC(=O)[C@@H](CCC(=O)O)NC(=O)[C@@H](Cc2ccccc2)NC(=O)[C@@H](C)NC(=O)[C@@H](CC(C)C)NC(=O)[C@H]2CCCN2C(=O)[C@@H](Cc2c[nH]c3ccccc23)NC(=O)[C@@H](Cc2c[nH]c3ccccc23)NC(=O)[C@@H](CC(=O)O)NC(=O)CCOCCOCCOCCNC(=O)CCCCC[N+]2=C(/C=C/C=C/C=C3N(C)c4ccc(S(=O)(=O)O)cc4C3(C)C)C(C)(C)c3cc(S(=O)(=O)[O-])ccc32)C(C)C)C(N)=O)nn1)C(=O)N[C@@H](Cc1ccc(O)cc1)C(=O)N[C@@H](Cc1ccccc1)C(=O)N1CCC[C@H]1C(=O)N[C@@H]1CCSSC[C@@H](C(=O)O)NC(=O)[C@H](Cc2ccccc2)NC(=O)[C@H](C)NC(=O)[C@H](Cc2ccccc2)NC(=O)[C@H](CCC(N)=O)NC1=O [2Cy] (I: {X2-PEG3}-[dD][dW][dW][dP][dL][dA][dF][dE][dA][dL][dL][dR]GGEV[Cit][PEG3][Pra]-NH2 / II: Ac-[Lys(N3)]YFP[d(hCys)]QFAFC-OH; triazole I:19-II:1; disulfide II:5-II:10)	seen only in CMKLR1-expressing cells	significantly elevated BRET	almost no receptor-specific BRET was detected	6.4 (3.7–9.3) nM	7.8 ± 5.4	–	–
I: GSVSHHHHHHGGHHHH[PEG3][dK]([PEG3-X1])[dD][dW][dW][dP][dL][dA][dF][dE][dA][dL][dL][dR]GEV[Cit][PEG3][Pra]-NH2 / II: Ac-[Lys(N3)]YFP[d(hCys)]QFAFC-OH (triazole I:36-II:1; disulfide II:5-II:10) [3Cy]	seen only in CMKLR1-expressing cells	significantly elevated BRET	almost no receptor-specific BRET was detected	7.0 (5.2–12.4) nM	20.1 ± 57.2	larger loss of BRET	slightly higher signal compared to 2Cy

From paper PMC12814185, “Receptor-Mediated Shuttling of a D‑Amino Acid Peptide Achieves High Nanomolar Cytosolic Concentrations” (Journal of the American Chemical Society, 2025)
